pIC50: −log10 of the molar value. Calls of active or inactive are those of the source. The rule behind the calls is not given here.
How the values were obtained:
MDA-MB-231 [1] = test: Antiproliferative activity against human MDA-MB-231 cells assessed as inhibition of cell viability at 10 uM after 48 hrs by MTT assay relative to control; format: functional
HCT-116 [2] = test: Antiproliferative activity against human HCT116 cells assessed as inhibition of cell viability at 10 uM after 48 hrs by MTT assay relative to control; format: functional
SW480 = test: Antiproliferative activity against human SW480 cells assessed as inhibition of cell viability at 10 uM after 48 hrs by MTT assay relative to control; format: functional
L3.6pl = test: Antiproliferative activity against human L3.6 cells assessed as inhibition of cell viability at 10 uM after 48 hrs by MTT assay relative to control; format: functional
[3] = Lipophilicity, log P of the compound; format: physicochemical; conditions: octanol/water
HCT-116 [4] = test: Antiproliferative activity against human HCT-116 cells assessed as inhibition of cell viability after 48 hrs by MTT assay; format: functional, cell-based; conditions: HCT-116, 48 h
[5] = molecular target: Signal transducer and activator of transcription 3 (Homo sapiens) (UniProt P40763); test: Inhibition of STAT3 phosphorylation at Y705 residue in human MDA-MB-231 cells incubated for 2 hrs by Western blotting analysis; format: cell-based; conditions: dose 1-10 µM
Signal transducer and activator of transcription 3 (Homo sapiens), sequence (P40763 whole entry): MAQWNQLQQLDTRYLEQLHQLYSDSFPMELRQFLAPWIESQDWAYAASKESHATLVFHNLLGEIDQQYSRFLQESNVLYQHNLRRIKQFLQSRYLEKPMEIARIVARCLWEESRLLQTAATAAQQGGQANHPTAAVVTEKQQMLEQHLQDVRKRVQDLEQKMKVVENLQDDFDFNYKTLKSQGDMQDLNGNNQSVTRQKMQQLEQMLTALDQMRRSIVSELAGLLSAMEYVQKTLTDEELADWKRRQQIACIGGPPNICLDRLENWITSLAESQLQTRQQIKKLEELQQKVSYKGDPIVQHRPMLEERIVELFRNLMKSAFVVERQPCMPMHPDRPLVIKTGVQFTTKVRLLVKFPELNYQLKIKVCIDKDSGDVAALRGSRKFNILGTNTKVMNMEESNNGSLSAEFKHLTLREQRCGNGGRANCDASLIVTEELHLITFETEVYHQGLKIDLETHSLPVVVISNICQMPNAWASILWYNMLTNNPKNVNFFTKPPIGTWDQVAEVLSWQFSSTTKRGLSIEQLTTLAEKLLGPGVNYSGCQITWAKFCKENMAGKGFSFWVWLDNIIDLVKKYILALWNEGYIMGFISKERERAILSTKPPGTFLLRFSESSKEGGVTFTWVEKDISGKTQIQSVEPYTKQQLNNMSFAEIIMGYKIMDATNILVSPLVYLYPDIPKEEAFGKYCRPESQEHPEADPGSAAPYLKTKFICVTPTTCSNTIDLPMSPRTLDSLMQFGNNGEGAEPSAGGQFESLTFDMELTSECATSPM

MDA-MB-231 [6] = test: Effect on total STAT3 expression in human MDA-MB-231 cells at 1 to 10 uM incubated for 2 hrs by Western blotting analysis; format: functional, cell-based; conditions: dose 1-10 µM
[7] = system: Epidermal growth factor receptor (Homo sapiens), P00533 [L858R]; test: Inhibition of EGFR L858R mutant (669 to 1210 residues) (unknown origin) expressed in Sf21 cells at 10 uM preincubated for 10 mins followed by peptide substrate addition relative to control
[8] = molecular target: Tyrosine-protein kinase JAK1 (Homo sapiens) (UniProt P23458); test: Inhibition of JAK1 (850 to 1154 residues) (unknown origin) expressed in Sf21 cells at 10 uM preincubated for 10 mins followed by peptide substrate addition relative to control
[9] = molecular target: Tyrosine-protein kinase JAK3 (Homo sapiens) (UniProt P52333); test: Inhibition of N-terminal His-tagged JAK3 (795 to 1124 residues) (unknown origin) expressed in Sf21 cells at 10 uM preincubated for 10 mins followed by peptide substrate addition relative to control
[10] = molecular target: Non-receptor tyrosine-protein kinase TYK2 (Homo sapiens) (UniProt P29597); test: Inhibition of TYK2 (871 to 1187 residues) (unknown origin) expressed in Sf21 cells at 10 uM preincubated for 10 mins followed by peptide substrate addition relative to control
Non-receptor tyrosine-protein kinase TYK2 (Homo sapiens), sequence (P29597 whole entry, the tested form may be a part): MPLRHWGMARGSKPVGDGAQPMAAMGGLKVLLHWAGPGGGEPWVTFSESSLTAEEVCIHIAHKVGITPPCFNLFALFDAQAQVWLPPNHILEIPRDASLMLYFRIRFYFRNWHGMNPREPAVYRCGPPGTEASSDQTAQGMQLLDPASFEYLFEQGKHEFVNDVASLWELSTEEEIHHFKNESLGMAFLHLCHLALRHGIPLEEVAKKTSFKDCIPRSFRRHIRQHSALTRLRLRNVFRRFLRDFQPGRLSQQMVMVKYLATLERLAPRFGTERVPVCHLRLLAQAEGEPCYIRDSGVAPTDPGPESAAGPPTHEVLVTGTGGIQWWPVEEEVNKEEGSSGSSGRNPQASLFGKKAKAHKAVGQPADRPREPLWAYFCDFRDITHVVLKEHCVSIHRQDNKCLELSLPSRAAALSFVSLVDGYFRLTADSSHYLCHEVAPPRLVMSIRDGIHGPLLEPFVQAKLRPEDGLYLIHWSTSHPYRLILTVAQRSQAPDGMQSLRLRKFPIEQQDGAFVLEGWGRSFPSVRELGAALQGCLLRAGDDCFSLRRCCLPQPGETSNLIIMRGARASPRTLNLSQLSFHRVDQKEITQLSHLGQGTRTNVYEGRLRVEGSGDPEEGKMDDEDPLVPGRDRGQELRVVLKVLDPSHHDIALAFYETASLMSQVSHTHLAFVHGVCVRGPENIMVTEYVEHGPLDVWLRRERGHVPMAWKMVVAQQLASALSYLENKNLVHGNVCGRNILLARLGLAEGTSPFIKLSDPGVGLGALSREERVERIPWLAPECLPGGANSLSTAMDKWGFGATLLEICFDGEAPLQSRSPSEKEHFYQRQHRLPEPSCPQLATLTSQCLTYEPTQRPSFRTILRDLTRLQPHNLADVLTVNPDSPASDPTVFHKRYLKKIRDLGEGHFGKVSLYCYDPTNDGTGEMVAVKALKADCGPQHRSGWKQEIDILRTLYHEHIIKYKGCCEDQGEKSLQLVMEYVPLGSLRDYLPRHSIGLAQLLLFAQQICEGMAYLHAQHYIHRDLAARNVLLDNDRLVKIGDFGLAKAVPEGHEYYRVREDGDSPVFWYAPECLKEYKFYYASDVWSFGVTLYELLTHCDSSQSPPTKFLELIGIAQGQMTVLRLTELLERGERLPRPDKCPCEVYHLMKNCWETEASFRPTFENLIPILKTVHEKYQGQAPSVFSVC

[11] = molecular target: Proto-oncogene tyrosine-protein kinase Src (Homo sapiens) (UniProt P12931); test: Inhibition of full length SRC (1 to 536 residues) (unknown origin) expressed in Sf21 cells at 10 uM preincubated for 10 mins followed by peptide substrate addition relative to control
[12] = molecular target: Fibroblast growth factor receptor 2 (Homo sapiens) (UniProt P21802); test: Inhibition of N-terminal GST-tagged FGFR2 (399 to 821 residues) (unknown origin) expressed in Sf21 cells at 10 uM preincubated for 10 mins followed by peptide substrate addition relative to control
Fibroblast growth factor receptor 2 (Homo sapiens), sequence (P21802 22-821 limits assumed): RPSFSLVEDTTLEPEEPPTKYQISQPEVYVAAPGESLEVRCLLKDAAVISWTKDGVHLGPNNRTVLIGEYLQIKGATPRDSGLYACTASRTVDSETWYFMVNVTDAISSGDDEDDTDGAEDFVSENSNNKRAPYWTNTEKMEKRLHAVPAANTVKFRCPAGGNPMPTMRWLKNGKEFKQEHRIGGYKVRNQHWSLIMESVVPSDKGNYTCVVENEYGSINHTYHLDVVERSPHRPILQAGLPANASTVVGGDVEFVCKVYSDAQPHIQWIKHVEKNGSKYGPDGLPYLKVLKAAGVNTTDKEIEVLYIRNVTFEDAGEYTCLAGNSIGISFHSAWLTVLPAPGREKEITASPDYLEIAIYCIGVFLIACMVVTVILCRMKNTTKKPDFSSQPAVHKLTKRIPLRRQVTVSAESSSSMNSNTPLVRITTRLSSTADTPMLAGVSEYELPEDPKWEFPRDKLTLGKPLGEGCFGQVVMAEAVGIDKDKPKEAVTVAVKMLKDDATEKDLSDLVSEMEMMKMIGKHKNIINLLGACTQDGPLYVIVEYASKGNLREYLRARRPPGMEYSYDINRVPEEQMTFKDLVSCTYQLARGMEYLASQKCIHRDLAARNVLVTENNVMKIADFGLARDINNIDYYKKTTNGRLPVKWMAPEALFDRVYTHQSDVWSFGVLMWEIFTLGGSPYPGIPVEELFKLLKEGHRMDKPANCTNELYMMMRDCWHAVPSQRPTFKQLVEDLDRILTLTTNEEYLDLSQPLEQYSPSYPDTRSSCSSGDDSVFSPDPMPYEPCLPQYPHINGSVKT

[13] = molecular target: RAC-beta serine/threonine-protein kinase (Homo sapiens) (UniProt P31751); test: Inhibition of human N-terminal His-tagged full length AKT2 expressed in Sf9 cells at 10 uM preincubated for 10 mins followed by peptide substrate addition relative to control
[14] = molecular target: Mitogen-activated protein kinase 1 (Homo sapiens) (UniProt P28482); test: Inhibition of N-terminal GST-tagged full length ERK2 (1 to 360 residues) (unknown origin) expressed in Escherichia coli at 10 uM preincubated for 10 mins followed by peptide substrate addition relative to control
[15] = molecular target: Proto-oncogene tyrosine-protein kinase ROS (Homo sapiens) (UniProt P08922); test: Inhibition of N-terminal GST-tagged ROS1 (1883 to 2347 residues) (unknown origin) expressed in Sf21 cells at 10 uM preincubated for 10 mins followed by peptide substrate addition relative to control
Proto-oncogene tyrosine-protein kinase ROS (Homo sapiens), sequence (P08922 whole entry, the tested form may be a part): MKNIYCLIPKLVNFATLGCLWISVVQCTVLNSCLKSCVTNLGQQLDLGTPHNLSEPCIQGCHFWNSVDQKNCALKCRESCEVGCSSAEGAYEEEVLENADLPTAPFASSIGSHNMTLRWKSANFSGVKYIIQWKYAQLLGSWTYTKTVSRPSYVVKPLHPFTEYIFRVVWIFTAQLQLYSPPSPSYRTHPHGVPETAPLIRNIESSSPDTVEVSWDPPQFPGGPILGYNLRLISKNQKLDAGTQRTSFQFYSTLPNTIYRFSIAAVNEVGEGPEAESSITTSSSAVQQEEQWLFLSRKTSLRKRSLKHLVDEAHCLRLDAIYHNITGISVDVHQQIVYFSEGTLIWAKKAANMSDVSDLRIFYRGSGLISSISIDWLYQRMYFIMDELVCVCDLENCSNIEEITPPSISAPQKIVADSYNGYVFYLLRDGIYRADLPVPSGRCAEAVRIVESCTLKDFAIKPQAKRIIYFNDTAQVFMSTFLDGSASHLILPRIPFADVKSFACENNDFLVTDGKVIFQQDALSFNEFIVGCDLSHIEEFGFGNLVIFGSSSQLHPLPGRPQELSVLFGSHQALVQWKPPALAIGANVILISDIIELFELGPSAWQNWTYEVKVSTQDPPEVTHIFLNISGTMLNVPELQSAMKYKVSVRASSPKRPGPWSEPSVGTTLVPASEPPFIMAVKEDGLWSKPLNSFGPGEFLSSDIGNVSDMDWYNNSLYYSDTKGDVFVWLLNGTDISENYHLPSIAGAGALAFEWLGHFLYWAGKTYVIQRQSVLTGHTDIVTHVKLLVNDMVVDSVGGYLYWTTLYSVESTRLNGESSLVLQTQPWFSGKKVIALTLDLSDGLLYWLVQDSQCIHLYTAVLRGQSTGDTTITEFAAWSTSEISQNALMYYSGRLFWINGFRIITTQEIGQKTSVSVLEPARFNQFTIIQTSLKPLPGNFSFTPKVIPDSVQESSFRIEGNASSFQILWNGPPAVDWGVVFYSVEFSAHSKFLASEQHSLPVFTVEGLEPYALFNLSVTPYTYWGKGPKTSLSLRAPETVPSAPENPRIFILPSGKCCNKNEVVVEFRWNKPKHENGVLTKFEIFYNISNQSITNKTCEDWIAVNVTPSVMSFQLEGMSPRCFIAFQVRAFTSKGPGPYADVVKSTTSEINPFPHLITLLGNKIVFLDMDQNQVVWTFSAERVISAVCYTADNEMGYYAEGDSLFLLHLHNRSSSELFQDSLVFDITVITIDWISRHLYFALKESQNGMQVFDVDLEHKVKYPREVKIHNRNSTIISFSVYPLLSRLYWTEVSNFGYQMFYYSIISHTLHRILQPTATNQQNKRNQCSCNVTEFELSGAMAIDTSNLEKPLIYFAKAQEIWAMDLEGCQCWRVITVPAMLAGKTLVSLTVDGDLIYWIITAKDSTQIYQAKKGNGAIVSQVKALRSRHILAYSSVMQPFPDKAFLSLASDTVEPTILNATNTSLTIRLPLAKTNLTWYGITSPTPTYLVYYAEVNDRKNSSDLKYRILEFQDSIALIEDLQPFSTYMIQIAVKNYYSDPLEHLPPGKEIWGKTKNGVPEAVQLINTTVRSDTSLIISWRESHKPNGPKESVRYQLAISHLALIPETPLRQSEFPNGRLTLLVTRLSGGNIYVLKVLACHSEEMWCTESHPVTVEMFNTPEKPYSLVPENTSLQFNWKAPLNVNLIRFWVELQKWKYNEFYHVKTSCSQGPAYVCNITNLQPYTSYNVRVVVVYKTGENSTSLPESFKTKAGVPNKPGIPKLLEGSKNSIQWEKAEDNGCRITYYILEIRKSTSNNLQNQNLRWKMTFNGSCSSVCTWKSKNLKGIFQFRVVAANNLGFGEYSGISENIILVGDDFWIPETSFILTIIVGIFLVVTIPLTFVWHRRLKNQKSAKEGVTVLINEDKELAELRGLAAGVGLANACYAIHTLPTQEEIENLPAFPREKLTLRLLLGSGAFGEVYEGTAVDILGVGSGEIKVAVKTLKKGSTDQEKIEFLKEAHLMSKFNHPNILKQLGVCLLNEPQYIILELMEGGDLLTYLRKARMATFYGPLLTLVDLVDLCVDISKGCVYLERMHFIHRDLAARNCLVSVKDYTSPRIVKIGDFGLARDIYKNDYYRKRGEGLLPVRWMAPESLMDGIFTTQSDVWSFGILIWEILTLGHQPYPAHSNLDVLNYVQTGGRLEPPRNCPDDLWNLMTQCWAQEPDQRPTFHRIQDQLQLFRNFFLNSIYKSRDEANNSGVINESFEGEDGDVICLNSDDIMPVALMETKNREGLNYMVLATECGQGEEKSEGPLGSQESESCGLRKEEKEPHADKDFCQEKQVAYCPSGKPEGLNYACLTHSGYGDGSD

[16] = molecular target: Vascular endothelial growth factor receptor 1 (Homo sapiens) (UniProt P17948); test: Inhibition of recombinant human GST-tagged FLT1 (781 to 1338 residues) expressed in baculovirus expression system at 10 uM preincubated for 10 mins followed by peptide substrate addition relative to control
[17] = molecular target: Receptor-type tyrosine-protein kinase FLT3 (Homo sapiens) (UniProt P36888); test: Inhibition of recombinant human His-tagged FLT3 expressed in baculovirus expression system at 10 uM preincubated for 10 mins followed by peptide substrate addition relative to control
[18] = molecular target: Hepatocyte growth factor receptor (Homo sapiens) (UniProt P08581); test: Inhibition of MET (956 to 1390 residues) (unknown origin) expressed in Sf21 cells at 10 uM preincubated for 10 mins followed by peptide substrate addition relative to control
[19] = molecular target: Cyclin-dependent kinase 7 (Homo sapiens) (UniProt P50613); test: Inhibition of CDK7 (unknown origin) at 10 uM preincubated for 10 mins followed by peptide substrate addition relative to control
[20] = molecular target: Mitogen-activated protein kinase 8 (Homo sapiens) (UniProt P45983); test: Inhibition of N-terminal GST-tagged JNK1 (2 to 364 residues) (unknown origin) expressed in Escherichia coli at 10 uM preincubated for 10 mins followed by peptide substrate addition relative to control
[21] = molecular target: Proto-oncogene tyrosine-protein kinase receptor Ret (Homo sapiens) (UniProt P07949); test: Inhibition of RET (658 to 1114 residues) (unknown origin) expressed in Sf21 at 10 uM preincubated for 10 mins followed by peptide substrate addition relative to control
[22] = molecular target: Signal transducer and activator of transcription 3 (Homo sapiens) (UniProt P40763); test: Inhibition of STAT3 promoter activity in human MDA-MB-231 cells at 0.1 uM incubated for 24 hrs by dual luciferase reporter assay; format: cell-based
MDA-MB-231 [23] = test: Induction of apoptosis in human MDA-MB-231 cells assessed as increase in cleaved caspase 9 expression at 1 to 10 uM incubated for 24 hrs by Western blot analysis; format: functional, cell-based; conditions: dose 1-10 µM
MDA-MB-231 [24] = test: Induction of apoptosis in human MDA-MB-231 cells assessed as apoptotic cells at 10 uM measured after 24 hrs by annexinV-FITC/propidium iodide staining based flow cytometry analysis (reference value: 2.49%); format: functional
MDA-MB-231 [25] = test: Inhibition of colony formation in human MDA-MB-231 cells at 1 uM after 24 hrs followed by compound washout and subsequent incubation for 14 days by crystal violet staining based assay; format: functional, cell-based
MDA-MB-231 [26] = test: Inhibition of human MDA-MB-231 cells migration after 24 hrs by crystal violet staining based transwell migration assay; format: functional, cell-based; conditions: dose 0.1-1 µM
MDA-MB-231 [27] = test: Antitumor activity against human MDA-MB-231 cells xenografted in BALB/c nude mouse assessed as the inhibition of tumor growth at 30 mg/kg, ig administered every two days; format: functional, organism-based
[28] = molecular target: Serine/threonine-protein kinase PAK 1 (Homo sapiens) (UniProt Q13153); test: Inhibition of full length N-terminal GST-tagged PAK1 (1 to 545 residues) (unknown origin) expressed in Sf21 at 10 uM preincubated for 10 mins followed by peptide substrate addition relative to control

Work on `CC(C)(C)OC(=O)c1ccc(NC(=O)c2ccc(Cl)c(S(N)(=O)=O)c2)cc1` yielded an inhibition at 10 µM (MDA-MB-231 [1]) of 93%, an inhibition at 10 µM (HCT-116 [2]) of 85.3% and an inhibition at 10 µM (SW480) of 80.9%. The inhibition at 10 µM (L3.6pl) was 21.9%, the logP [3] was 1.83 and the pIC50 (HCT-116 [4]) was 6.16. For the same compound, the inhibition [5] was “Dose-Dependent Effect”, the inhibition (MDA-MB-231 [6]) was “Active” and the inhibition [7] was 4.82%. For the same compound, the inhibition [8] was 2.99%, the inhibition [9] was 4.24% and the inhibition [10] was -1.53%. The inhibition [11] was 1.42%, the inhibition [12] was 5.28% and the inhibition [13] was 3.38%. For the same compound, the inhibition [14] was 0.78%, the inhibition [15] was -3.38% and the inhibition [16] was 4.33%. For the same compound, the inhibition [17] was 10.2%, the inhibition [18] was 0.13% and the inhibition [19] was 6.45%. For the same compound, the inhibition [20] was 2.52%, the inhibition [21] was -7.23% and the inhibition [22] was 24.7%. The Activity (MDA-MB-231 [23]) was “Active”, the Activity (MDA-MB-231 [24]) was 25.63% and the inhibition (MDA-MB-231 [25]) was “Active”. The inhibition (MDA-MB-231 [26]) was “Dose-Dependent Effect”, the Activity (MDA-MB-231 [27]) was “Active” and the inhibition [28] was 9.32%.

Reference: ChEMBL document CHEMBL4811240, “Discovery of N-substituted sulfamoylbenzamide derivatives as novel inhibitors of STAT3 signaling pathway based on Niclosamide” (Eur J Med Chem, 2021)
